What was measured:
[1] = tested on: sterlet and catfish mother fishes; assay: spawning (roe deposition / ovulation) of sterlet and catfish mother fishes; assay type: in vivo; details: control group under the same conditions
[2] = tested on: blue and silver foxes; assay: extra-seasonal rutting of blue and silver foxes; assay type: in vivo; details: single dose of 10 μg
[3] = tested on: cattle; assay: pregnancy ratio of cattle, dosing simultaneously with insemination; assay type: in vivo; details: same dose (100 μg/dose)
[4] = tested on: female turkeys; assay: brooding time of female turkeys; assay type: in vivo, turkey

Row | Substance | ovulation (in words) [1] | extra-seasonal rutting [2] | effect on the pregnancy ratio (in words) [3] | brooding time [4]
1 | D-Phe^6, desGly^10 -LH-RH-ethylamide | no ovulation occurred | – | – | –
2 | native LH-RH: gonadoliberine, gonadotrop releasing hormone; native hormone used as comparator (QHWSYGLRPG; Gonadoliberin-1; UniProt P01148 24-33, looked up) | – | inefficacious | not efficacious | ineffective
